Source: ChEMBL document CHEMBL5528078, “Structural Basis for Molecular Recognition of Cannabinoids by Inhibitory Cys-Loop Channels” (J Med Chem, 2024)

Assays:
[1] = target: T1, Glycine receptor subunit alpha-1 (Homo sapiens, UniProt P23415); assay: Inhibition of human […] glycine receptor alpha 1 expressed in HEK293 cells; format: cell-based
T1 sequence (P23415 whole entry): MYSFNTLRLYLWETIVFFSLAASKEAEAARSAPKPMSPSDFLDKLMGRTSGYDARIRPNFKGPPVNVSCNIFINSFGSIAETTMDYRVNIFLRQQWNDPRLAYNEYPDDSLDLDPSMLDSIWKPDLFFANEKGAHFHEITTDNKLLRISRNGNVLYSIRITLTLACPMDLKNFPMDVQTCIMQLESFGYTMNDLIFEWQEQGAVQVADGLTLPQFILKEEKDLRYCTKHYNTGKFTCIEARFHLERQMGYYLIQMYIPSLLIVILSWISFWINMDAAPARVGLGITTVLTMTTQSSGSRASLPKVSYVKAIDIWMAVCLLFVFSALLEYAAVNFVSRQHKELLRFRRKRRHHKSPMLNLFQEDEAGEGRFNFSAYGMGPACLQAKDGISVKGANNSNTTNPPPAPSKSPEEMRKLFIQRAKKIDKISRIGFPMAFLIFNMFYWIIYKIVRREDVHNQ

[2] = target: T2, Glycine receptor subunit alpha-2 (Homo sapiens, UniProt P23416); assay: Inhibition of human […] glycine receptor alpha 2 expressed in HEK293 cells; format: cell-based
T2 sequence (P23416 whole entry): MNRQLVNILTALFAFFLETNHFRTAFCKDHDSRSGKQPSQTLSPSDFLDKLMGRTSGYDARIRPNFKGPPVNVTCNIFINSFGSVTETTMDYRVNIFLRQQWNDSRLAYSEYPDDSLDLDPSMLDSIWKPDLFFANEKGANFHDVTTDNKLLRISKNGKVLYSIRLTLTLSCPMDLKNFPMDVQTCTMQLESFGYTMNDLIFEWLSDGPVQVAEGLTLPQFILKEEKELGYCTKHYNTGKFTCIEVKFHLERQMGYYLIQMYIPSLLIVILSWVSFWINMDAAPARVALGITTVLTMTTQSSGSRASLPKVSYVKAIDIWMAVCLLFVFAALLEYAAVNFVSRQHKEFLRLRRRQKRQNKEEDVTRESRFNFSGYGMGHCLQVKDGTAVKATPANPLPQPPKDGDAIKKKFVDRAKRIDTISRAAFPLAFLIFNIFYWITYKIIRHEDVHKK

[3] = Cytotoxicity against HEK293 cells assessed as inhibition of cell growth incubated for 48 hrs by CCK8 assay; format: toxicity, cell-based; settings: human
[4] = Inhibition of […] glycine receptor (unknown origin) expressed in HEK293 cells; format: cell-based, Homo sapiens

`CCCCCCC(C)(C)c1cc(O)c2c(c1)OC(C)(C)[C@@H]1CC=C(CO)C[C@@H]21` gave an IC50 [1] of 2.7 µM.
In the case of `C=C(C)[C@@H]1CCC(C)=C[C@H]1c1c(O)cc(CCCCC)cc1O` [CANNABIDIOL], the IC50 [2] is reported as 2.7 µM and the EC50 at 48 h [3] is reported as 12 µM.
`CCCCCc1cc(O)c2c(c1)OC(C)(C)[C@@H]1CCC(C)=C[C@@H]21` [DRONABINOL] gave an IC50 [4] of 2.7 µM.
